# Columns and labels:
# [1] = system: actomyosin ATPase of mouse cardiac myofibrils; assay: Actomyosin MgATPase assay of isolated cardiac myofibrils (Ca2+ sensitivity); type: biochemical
# Method: Mice were anesthetized with sodium pentobarbital (50 mg/kg body weight, i.p.). Hearts removed from transgenic or control mice were perfused in a retrograde manner, either with normal saline or with saline containing 20 nM isoproterenol. Cardiac myofibrils were prepared according to the method described by Solaro et al. (23, incorporated herein by reference) with modifications. These include the use of NaF (50 mM), EGTA (2.5 mM), and KH2PO4 as phosphatase inhibitors and phenylmethylsulphonyl fluoride (0.2 mM) as a protease inhibitor (24). The ventricular muscle was pulverized in a food blender for 10 seconds in 50 ml buffer containing 0.5% (v/v) Triton X-100®, 60 mM KCl, 30 mM imidazole, pH 7.0, 2 mM MgCl2, and 1 mM DTT, incubated for 5 min and centrifuged at 2,500×g for 2 min. Pellets were washed three times in buffer containing 60 mM KCl, 30 mM imidazole, pH 7.0, 2 mM MgCl2, and 1 mM DTT.
# Actomyosin MgATPase assays were performed to titrate the Ca^2+ sensitivity of the transgenic and wild-type mouse cardiac myofibrils under constant ionic strength, using the stability constants compiled by Fabiato (25), and were performed at pH 7.0 with 50 mM imidazole, 50 mM KCl, and 2 mM MgATP at 37° C. Inorganic phosphate release was measured as the amount of heteropolymolybdenum (26) using an automated microtiter plate reader (Bio-Rad Benchmark) for optical density at 660 nm, as described previously (27, incorporated herein by reference).
# [2] = system: isolated working mouse hearts; assay: Langendorff-Neely isolated working heart preparation
# Method: Cardiac function of wild-type and transgenic mice were measured at 5-6 months of age using the Langendorff-Neely isolated working heart preparation, at a constant preload of 10 mmHg and an afterload of 55 mmHg, as previously described (29-31, incorporated herein by reference). Mice were anesthetized as above and the thoracic cavity was opened by a transverse incision to access the heart. Retrograde perfusion through the aorta was initiated within 60 seconds after removal of the heart. After establishing left atrial perfusion, the heart was switched to working mode. The hearts were perfused with Krebs-Henseleit bicarbonate buffer aerated with 95% O2-5% CO2 at 37° C. (pH=7.4). The buffer contents were as follows (in mM): 118 NaCl, 4.7 KCl, 2.25 CaCl2, MgSO4, 1.2 KH2PO4, 0.32 EGTA, 25 NaHCO3, and 11 D-glucose (29). Functions of the isolated working hearts were measured on intrinsic beats at 37° C. with no artificial pacing applied.
# Aortic flow and coronary effluent were collected once every two minutes over a 30-minute period. Heart rate and the maximum rate of pressure development (dP/dt) were measured using an MLT844 pressure transducer (Capto, Horten, Norway) attached to the aortic cannula. […]
# Stroke volume (μL/g heart tissue) was calculated as the sum of aortic flow and coronary effluent, normalized to heart rate. Stroke work (mL-mmHg/g heart tissue) was calculated as stroke volume X average aortic pressure (diastolic pressure+one-third of pulse pressure) (mmHg). During the collection of aortic flow, time to peak pressure (TTP) and the relaxation times (RT) at 10, 50 and 80% total relaxation (RT10, RT50 and RT80, respectively) were measured from the pressure traces. Systolic and diastolic pressure time integrals (STI, correlating with myocardial energy expenditure (31-34), and DTI, correlating with diastolic function and coronary perfusion (35-42), respectively) were calculated by integrating the systolic and diastolic portions of the pressure waves. […]
# [3] = system: transgenic mouse hearts; assay: Observation of transgenic mice and hearts for hypertrophy and abnormality; type: in vivo
# Description: Transgenic mice over-expressing various levels of cTnI-ND in the heart are apparently normal in life activities.
"maximum actomyosin ATPase rate with isoproterenol treatment, WT myofibrils ([1]; WT cardiac myofibrils, with isoproterenol treatment) [nmole Pi/mg protein/min]",pCa50 ([1]; myofibrils from isoproterenol perfused WT hearts),"maximum Ca^2+-activated actomyosin ATPase rate ([1]; cTnI-ND cardiac myofibrils, base line) [nmole Pi/mg protein/min]",Compound,"−dP/dt produced by isoproterenol treatment in WT hearts ([2]; 10 nM isoproterenol, WT hearts) [mmHg-sec^−1]","effect of isoproterenol on velocity of contraction (+dP/dt) ([2]; 10 nM isoproterenol, WT, INT-cTnI-ND and H-cTnI-ND hearts)","effect of isoproterenol on relaxation velocity ([2]; 30 nM and 50 nM isoproterenol perfusions, all three groups of hearts)","maximum actomyosin ATPase rate with isoproterenol treatment, cTnI-ND myofibrils ([1]; cTnI-ND cardiac myofibrils, with isoproterenol treatment) [nmole Pi/mg protein/min]","hypertrophy (heart weight/body weight ratio, diameter of cardiac myocytes) ([3]; compared with wild type controls)",anatomical or histological abnormality of hearts ([3]; transgenic mouse hearts)
418±57,5.91±0.05,,CC(C)NCC(O)c1ccc(O)c(O)c1 (stereo not drawn) [isoproterenol],2087±58,increased in all three groups,significant increases in relaxation velocity,,,
,,417±48,"cTnI-ND: N-terminus truncated mouse cardiac troponin I that lacks amino acids 1-28, over-expressed in transgenic mouse hearts",,,,421±43,No evidence of hypertrophy,no evidence of anatomical or histological abnormality

# Source: US8334105B2, “Methods for treating cardiac disease by modifying an N-terminal domain of troponin I” (Northshore University Healthsystem, priority 2004, dated 2012)
